Laboratory results: patent publication US20030170643A1, “Regulation of apoB treatment and drug screening for cardiovascular and metabolic disorders or syndromes” (priority 1999, published 2003)

Tests used:
rat hepatoma cells = test: TBARS assay of ROS in cell lysates of rat hepatoma cells; assay type: cell-based; conditions: fatty acid alone
Method: FIG. 13 illustrates that either an iron chelator (DFX) or lipid antioxidants block DHA-stimulated apoB degradation and reactive oxygen species (ROS) production. Rat hepatoma cells were plated in culture wells and pre-incubated in media containing either DHA or DHA with one of the indicated compounds. Radiolabeled methionine/cysteine was added to the culture media for 15 minutes, after which time, the culture media were replaced by fresh media identical in composition except that radiolabeled methionine/cysteine were replaced by unlabeled methionone/cysteine. The recovery of labeled apoB100 ([^35S]-apoB100) from the media and cell lysate was determined at the indicated time points (with time 0 being the point when the fresh media were applied to the cells) by immunoprecipitating apoB species with a rabbit polyclonal antibody to rat apoB, resuspending the immunoprecipitates, combining aliquots from cell lysate and media samples from each well, resolving the protein contents of the combined immunoprecipitates by SDS-polyacrylamide gel electrophoresis (SDS-PAGE), and exposing the resultant gels to X-ray film in order to visualize the labeled apoB bands. In panel A are shown representative signals for radiolabeled apoB100 in each of the treatment conditions. […] For each treatment, there were at least 2 wells/treatment for each time point and the entire experiment repeated. The signal intensities of the apoB100 bands were quantified by densitometry and the mean relative recoveries (the % of the 15 minute, or initial, value still remaining at 120 minutes) ±SEM are shown in panel B. Note that the visual impressions observable in panel A are confirmed by the quantitative analysis; i.e., there is a substantial increase in labeled apoB100 recovery with any of the co-treatments. In panel C, the ROS content of the cell lysates at the end of the experiment was measured by the standard TBARS assay (Stocks et al., 1974, Clin Sci Mol Med 47,215-222). Note that compared to control (BSA), DHA induced a large increase in TBARS, as expected because of its high content on unsaturated bonds. […] FIG. 15 illustrates that AA stimulates apoB100 degradation and increases ROS. […] Note in the upper panel that the combined recovery (from two separate wells/time point) of radiolabeled apoB100 decreased from 15 to 120 minutes, indicating significant apoB100 degradation had occurred in the presence of AA. […] In addition to being a source of ROS, AA can also be converted by cyclooxygenase (COX) to bioactive prostaglandin compounds. We therefore repeated the experiment with AA but with co-treatment by the COX inhibitor aspirin.

rat primary hepatocytes = test: Secretion of newly synthesized ([35S]methionine-labeled) VLDL-apoproteins by rat primary hepatocytes incubated with fatty acid/BSA complexes; assay type: cell-based; conditions: fatty acid/BSA complexes (0.8 mM FA), VLDL fraction
Method: Cells were plated at a density of 2×10^6 cells/ml on 60-mm culture dishes (previously coated with poly-D-lysine) in modified M199 medium (M199, 1% fetal bovine serum [FBS], 1 mM nicotinamide, 0.1 nM insulin, 3 mg/ml choline, 1.1% L-glutamine, 1% BSA). After a four-hour attachment period, the medium was changed (modified M199 identical to the above except BSA was omitted and the concentration of FBS was raised to 10%). The next morning, cells were washed in serum-free medium three times, the experimental media added, and the cells incubated at 37° C. for 4-6 hours. The experimental medium consisted of serum-free RPMI containing the appropriate isotopes (see below) and fatty acids (FA) present at a final concentration of 0.8 mM complexed to BSA (FA:BSA molar ratio=5:1). The fatty acids used were oleic (OA), EPA, and DHA. Control medium was identical, except that BSA (0.16 mM) without fatty acids was present. For metabolic labeling of proteins, [^35S]methionine (70 uCi/ml) was included in the experimental media.
Following the 4-6 hour incubation period, the cell monolayer was washed, then solubilized in 0.1 M NaOH, and the cell protein determined by the Lowry method (Lowry, O. H., Rosebrough, N. J., Farr, A. L., and Randall, R. J. (1951) J Biol Chem 193, 265-75). Each 60 mm dish contained approximately 1-1.5 mg of cell protein. The secreted apoproteins were isolated from the medium either by ultracentrifugation or immunoprecipitation. To isolate the d<1.006 (VLDL) and 1.006<d<1.063 (IDL and LDL) g/ml density classes by centrifugation, sequential 20 hour runs at 48,000 rpm in a 50 Ti Beckman rotor at 4° C. were performed. After the first run at d=1.006, the upper VLDL layer was harvested and the density of the infranatant adjusted to 1.066 g/ml with solid KBr. After being overlaid with a KBr solution of density 1.063, the adjusted infranatant was re-centrifuged as before to isolate the IDL and LDL fractions. In some experiments, the HDL fraction (1.063<d<1.21) was isolated by sequential density centrifugation. Lipoprotein fractions were then dialyzed against 0.9% NaCl containing 10 mM unlabeled methionine, 0.2 mM PMSF, and 2 mM EDTA. Dialyzed lipoproteins were delipidated using 9 volumes of 100% isopropanol. Apoproteins were then collected by centrifugation in a Sorval HB-4 rotor at 10,000 rpm and 4° C. for 20 min, and dissolved in buffer (0.01 M phosphate, pH 7,1 % SDS, 10% glycerol), in preparation for electrophoresis.
To immunoprecipitate apoB or apoE from unfractionated conditioned medium, monospecific rabbit antiserum to rat apoB or apoE was used. Briefly, an aliquot of the medium was mixed with an equal volume of diluted antiserum (1:100 in PBS and 1% BSA) and incubated overnight at 4° C. Staph A was added in the form of immunoprecipitin, and the resultant precipitate containing the immune complexes was washed extensively, the staph A cells removed, and the isolated apoprotein dissolved in gel sample buffer (0.0625M tris/Cl, pH 6.8, 20% glycerol, 2% SDS). Electrophoretic separation of apoVLDL, apoIDL/LDL, and immunoprecipitates was accomplished using 3.5% acrylamide-18% glycerol gels as described (Maguire, G. F., Lee, M., and Connelly, P. W. (1989) J Lipid Res 30, 757-61). An aliquot of each sample was taken for scintillation counting, so that total radioactivity applied to each lane could be determined. Also, protein size standards were included in each gel.
After electrophoresis, the gels were stained, fixed, soaked in Enhance fluor solution, and dried following protocols supplied by the manufacturer. Dried gels were then exposed to X-ray film at −70° C. and signals on the resulting fluorograms were typically quantified by densitometry or phosphorimaging. Using the total radioactivity applied to each lane of the gel and the relative signal intensity of each band in that lane, the radioactivity associated with each apoprotein species was calculated. […]

CCCCCCCC/C=C\CCCCCCCC(=O)O [OA, oleic acid]
reactive oxygen species (ROS), TBARS assay, fatty acid compared to BSA (rat hepatoma cells): does not increase
secretion of newly synthesized VLDL-ApoB48, percentage of secretion observed with BSA alone (rat primary hepatocytes): 132 ± 11 percentage
secretion of newly synthesized VLDL-ApoB100, percentage of secretion observed with BSA alone (rat primary hepatocytes): 96 ± 4 percentage
secretion of newly synthesized VLDL-ApoE, percentage of secretion observed with BSA alone (rat primary hepatocytes): 84 ± 3 percentage
